Assay results taken from PubChem BioAssay (NCI).
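Results reflect a 48-hour exposure of cells in 96-well plates to compound at five concentrations. GI50 marks 50% less growth. The concentration for full growth arrest is given as TGI.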

Experiments:
Test in all cases: NCI anticancer screen, dose series, 48 h
MALME-3M melanoma = system: MALME-3M melanoma
HS 578T breast = system: HS 578T breast
CCRF-CEM leukemia = system: CCRF-CEM leukemia
NCI/ADR-RES ovarian = system: NCI/ADR-RES ovarian
SR leukemia = system: SR leukemia
A549 NSCLC = system: A549 NSCLC
NCI-H522 lung = system: NCI-H522 lung
SNB-19 CNS = system: SNB-19 CNS
HOP-62 NSCLC = system: HOP-62 NSCLC
HCC-2998 colon = system: HCC-2998 colon
T-47D breast = system: T-47D breast
SK-OV-3 ovarian = system: SK-OV-3 ovarian
MDA-MB-231 breast = system: MDA-MB-231 breast
BT-549 breast = system: BT-549 breast
SF-539 CNS = system: SF-539 CNS
OVCAR-8 ovarian = system: OVCAR-8 ovarian
U251 CNS = system: U251 CNS
DU-145 prostate = system: DU-145 prostate
UACC-257 melanoma = system: UACC-257 melanoma
PC-3 prostate = system: PC-3 prostate
MOLT-4 leukemia = system: MOLT-4 leukemia
UACC-62 melanoma = system: UACC-62 melanoma
HOP-92 NSCLC = system: HOP-92 NSCLC
NCI-H23 lung = system: NCI-H23 lung
SF-295 CNS = system: SF-295 CNS
SW-620 colon = system: SW-620 colon
LOX IMVI melanoma = system: LOX IMVI melanoma
SK-MEL-5 melanoma = system: SK-MEL-5 melanoma
SK-MEL-28 melanoma = system: SK-MEL-28 melanoma

SMILES: Fc1ccc2nc(-c3cc(-c4ccc5c(c4)OCO5)n[nH]3)[nH]c2c1
- GI50 (MALME-3M melanoma): 2.75 µM
- TGI (MALME-3M melanoma): > 100 µM
- GI50 (HS 578T breast): 9.53 µM
- TGI (HS 578T breast): > 100 µM
- GI50 (CCRF-CEM leukemia): 2.62 µM
- TGI (CCRF-CEM leukemia): > 44.7 µM
- GI50 (NCI/ADR-RES ovarian): 3.99 µM
- TGI (NCI/ADR-RES ovarian): > 100 µM
- GI50 (SR leukemia): 3.58 µM
- TGI (SR leukemia): > 100 µM
- GI50 (A549 NSCLC): 2.51 µM
- TGI (A549 NSCLC): 13.8 µM
- GI50 (NCI-H522 lung): 2.61 µM
- TGI (NCI-H522 lung): 13 µM
- GI50 (SNB-19 CNS): > 32.5 µM
- TGI (SNB-19 CNS): > 100 µM
- GI50 (HOP-62 NSCLC): 5.44 µM
- TGI (HOP-62 NSCLC): > 43.4 µM
- GI50 (HCC-2998 colon): 5.56 µM
- TGI (HCC-2998 colon): > 72.8 µM
- GI50 (T-47D breast): 3.31 µM
- TGI (T-47D breast): 52.1 µM
- GI50 (SK-OV-3 ovarian): 7.95 µM
- TGI (SK-OV-3 ovarian): 26.5 µM
- GI50 (MDA-MB-231 breast): 2.01 µM
- TGI (MDA-MB-231 breast): 6.59 µM
- GI50 (BT-549 breast): 1.48 µM
- TGI (BT-549 breast): > 25.9 µM
- GI50 (SF-539 CNS): 3.24 µM
- TGI (SF-539 CNS): 31.2 µM
- GI50 (OVCAR-8 ovarian): 2.99 µM
- TGI (OVCAR-8 ovarian): 16 µM
- GI50 (U251 CNS): 2.49 µM
- TGI (U251 CNS): > 35.8 µM
- GI50 (DU-145 prostate): 5.84 µM
- TGI (DU-145 prostate): > 53.1 µM
- GI50 (UACC-257 melanoma): 8.91 µM
- TGI (UACC-257 melanoma): > 100 µM
- GI50 (PC-3 prostate): 3.61 µM
- TGI (PC-3 prostate): > 82.3 µM
- GI50 (MOLT-4 leukemia): 2.56 µM
- TGI (MOLT-4 leukemia): > 69.4 µM
- GI50 (UACC-62 melanoma): 4.37 µM
- TGI (UACC-62 melanoma): > 52.2 µM
- GI50 (HOP-92 NSCLC): 1.87 µM
- TGI (HOP-92 NSCLC): 8.79 µM
- GI50 (NCI-H23 lung): 6.58 µM
- TGI (NCI-H23 lung): > 93.8 µM
- GI50 (SF-295 CNS): 4.99 µM
- TGI (SF-295 CNS): > 81.3 µM
- GI50 (SW-620 colon): 5.68 µM
- TGI (SW-620 colon): > 43.1 µM
- GI50 (LOX IMVI melanoma): 2.18 µM
- TGI (LOX IMVI melanoma): 10.4 µM
- GI50 (SK-MEL-5 melanoma): 1.56 µM
- TGI (SK-MEL-5 melanoma): 3.14 µM
- GI50 (SK-MEL-28 melanoma): 8.61 µM
